# Assay results from PMC4941640 (Cancer cell, 2015).
# Read-outs that look alike come from different tables or passages of the source.
# Tests used:
# [1] = tested on: A549 cells; test: p62 modulation by immunofluorescence; type: cell-based
# [2] = tested on: HCT116 xenograft tumors; conditions: 100 mg/kg single oral dose, 6 hr, nude mice
# [3] = tested on: HEK293 cells expressing GFPu; test: cells; conditions: Homo sapiens, HEK293, read-out: EC50, accumulation of GFPu
# [4] = tested on: HCT116 xenograft
# [5] = biological target: T1, DNA-PK (Homo sapiens, UniProt P78527); conditions: DNA-PK vs p97, dose titration
# [6] = tested on: PIK3C3; conditions: PIK3C3 vs p97, dose titration
# [7] = tested on: HCT 116 T688A xenografts; conditions: 90 mg/kg
# [8] = tested on: HEK293T cells stably expressing TCRα-GFP; test: cells; conditions: Homo sapiens, HEK-293T, read-out: EC50, accumulation of TCRα-GFP
# [9] = tested on: AMO-1 xenograft; conditions: after 2 cycles of treatment, qd4/3off
# [10] = tested on: HCT116 or A549 tumors; conditions: single administration, nude mice bearing HCT116 or A549 tumors
# [11] = tested on: 350 cancer cell lines; test: cells; conditions: 72 h
# [12] = tested on: A549 cells; test: cells; conditions: Homo sapiens, A549, read-out: EC50, induction of CHOP protein
# [13] = biological target: T1, DNA-PK; conditions: A549 cells, 6 hr, nuclear phospho-H2AX
# [14] = tested on: mTOR; conditions: mTOR vs p97, dose titration
# [15] = tested on: AMO-1; test: cells; conditions: Homo sapiens, AMO1, read-out: IC50 in vitro, AMO-1
# [16] = all dosing schedules tested, tumor-bearing mice, po
smiles,measurement,setting,value
CC(C)n1nc(-c2ccc3oc(N)nc3c2)c2c(N)ncnc21 [INK-128],effect on p62 levels,[1],decrease in p62 levels
Cc1cc(OCc2nnc(SC3CCCC3)n2-c2cccnc2)ccc1-c1ccc(S(C)(=O)=O)cc1 [NMS-873],effect on p62 levels,[1],decreases in p62 levels
CC(C)C[C@H](NC(=O)[C@H](Cc1ccccc1)NC(=O)c1cnccn1)B(O)O [bortezomib],effect on p62 levels,[1],decreases in p62 levels
"Cc1cc2c(C(N)=O)cccc2n1-c1nc2c(c(NCc3ccccc3)n1)COCC2 [CB-5083, 1-[4-(benzylamino)-5H,7H,8H-pyrano[4,3-d]pyrimidin-2-yl]-2-methyl-1H-indole-4-carboxamide]",decrease of p62 protein levels in tumor,[2],60%
same,EC50,[3],1050 nM
same,tumor growth inhibition (TGI),"[4]; 50 mg/kg po, qd",62%
same,tumor growth inhibition (TGI),"[4]; 100 mg/kg po, qd4/3off",78%
same,fold less affinity compared to p97,[5],29.6 fold
same,fold less affinity compared to p97,[6],158 fold
same,tumor growth of T688A mutant model,[7],not inhibited
same,EC50,[8],730 nM
same,complete regressions of tumors (animals),[9],6/12
same,accumulation of poly-ubiquitin or CHOP in tumor tissue,[10],strong and sustained induction of polyubiquitin
same,EC50,"[11]; read-out: EC50 of cell viability, lower end of range in panel",≥ 81 nM
same,EC50,"[11]; read-out: EC50 of cell viability, upper end of range in panel",≤ 2100 nM
same,EC50,[12],1190 nM
same,effect on p62 levels,[1],rapidly cleared from cells
same,inhibition of DNA-PK in cell-based assay,[13],not to inhibit DNA-PK at concentrations that caused cell death
same,fold less affinity compared to p97,[14],128 fold
same,IC50,[15],81 nM
same,weight loss,[16],< 10%
CO/C1=C\C(C)=C\[C@@H](C)[C@@H](O)[C@@H](C)C/C(C)=C/C=C/[C@H](OC)[C@@H]([C@@H](C)[C@@H](O)[C@H](C)[C@@]2(O)C[C@@H](O)[C@H](C)[C@@H](C(C)C)O2)OC1=O [bafilomycin A1],effect on p62 levels,[1],accumulation of p62 in peri-nuclear foci
